We go through eight compounds from PubChem BioAssay (NCI).

Usually GI50 stands for the concentration giving 50% growth inhibition. A word on the TGI: it is the concentration giving total growth inhibition. Read a low TGI as greater sensitivity of the cells.

Test systems include PC-3 prostate; NCI-H226 lung; MOLT-4 leukemia; UACC-62 melanoma; SF-295 CNS; SK-MEL-28 melanoma; CCRF-CEM leukemia; ACHN renal; MDA-MB-231 breast; SF-268 CNS.
Common to all, as to assay: DTP human tumour cell line panel, 48 h

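How tested: cells in 96-well plates exposed to compound for 48 hours at five concentrations. GI50 = concentration required for 50% inhibition of growth. TGI: concentration producing complete growth inhibition.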 *1 amine or outer side, *2 acyl side, *3 side chain or, on linkers, in order; H or OH if unused. Where a SMILES comes first, the peptide text is derived from it. Bridges are numbered along the chain shown (N, C = ends). [ ]: non-standard residue; d: D form. The star is where a group is joined. Phe(3-Me) = Cc1cccc(C[C@H](N)C(=O)O)c1; NH(4-Cl-2-F-phenyl) = Fc1cc(Cl)ccc1N*; Pro(4R-Me) = C[C@H]1CN[C@H](C(=O)O)C1; Hyp = O=C(O)[C@@H]1C[C@@H](O)CN1; aThr = C[C@H](O)[C@H](N)C(=O)O; Pip = O=C(O)[C@@H]1CCCCN1; CO = O=C([*:1])[*:2]

For the compound `C#CC[C@H](c1nc2cc(Cl)ccc2c(=O)n1Nc1ccccc1)N(CCCN)C(=O)c1cccc(Cl)c1F`, the GI50 in the assay on PC-3 prostate is 196 nM; with NCI-H226 lung it was 1630 nM; in the assay on MOLT-4 leukemia, 264 nM; in the assay with UACC-62 melanoma it was 636 nM; in the assay with SF-295 CNS, 353 nM; with SK-MEL-28 melanoma it was 765 nM. For the same compound, the GI50 in the assay on CCRF-CEM leukemia was 134 nM; in the assay with ACHN renal it was 1730 nM; in the assay on MDA-MB-231 breast, 107 nM; in the assay with SF-268 CNS, 214 nM. Moreover, the TGI in the assay on PC-3 prostate is 3160 nM; in the assay on NCI-H226 lung, 4560 nM; in the assay on MOLT-4 leukemia it was 2800 nM; in the assay on UACC-62 melanoma, 2000 nM; in the assay with SF-295 CNS it was 1480 nM; in the assay with SK-MEL-28 melanoma, 2220 nM. The total growth inhibition concentration (TGI) with CCRF-CEM leukemia was determined as 1910 nM; in the assay with ACHN renal, 3890 nM; in the assay with MDA-MB-231 breast, 601 nM; with SF-268 CNS, 2610 nM.
Turning to `c1cncc(CNc2ccccc2-c2nnc(Nc3ccc4c(c3)OCCO4)o2)c1`, the 50% growth inhibitory concentration (GI50) is 128 nM in the assay on PC-3 prostate; 153 nM in the assay on NCI-H226 lung; 435 nM in the assay on MOLT-4 leukemia; 52.2 nM in the assay on UACC-62 melanoma; 93.6 nM in the assay with SF-295 CNS; 145 nM in the assay on SK-MEL-28 melanoma. Moreover, the concentration for 50% growth inhibition (GI50) is 126 nM with CCRF-CEM leukemia, 1080 nM in the assay on ACHN renal, 644 nM with MDA-MB-231 breast and 646 nM with SF-268 CNS. Further, the TGI with PC-3 prostate is above 100000 nM; in the assay with NCI-H226 lung, 810 nM; with MOLT-4 leukemia it was 15500 nM; with UACC-62 melanoma, above 100000 nM; in the assay on SF-295 CNS, above 100000 nM; in the assay on SK-MEL-28 melanoma, above 100000 nM. The TGI was 51400 nM with CCRF-CEM leukemia, above 100000 nM with ACHN renal, above 100000 nM with MDA-MB-231 breast and above 100000 nM in the assay with SF-268 CNS.
Consider `NC(=O)C1=C(c2ccccc2)c2ccccc2C1=O`, for which the total growth inhibition concentration (TGI) was 32700 nM in the assay with PC-3 prostate; 37500 nM with NCI-H226 lung; 14900 nM in the assay with MOLT-4 leukemia; 32700 nM in the assay with UACC-62 melanoma; 41900 nM in the assay with SF-295 CNS; 44100 nM in the assay on SK-MEL-28 melanoma. Besides, the concentration for total growth inhibition (TGI) in the assay on CCRF-CEM leukemia came to 7710 nM; with ACHN renal, 23500 nM; with MDA-MB-231 breast, 32400 nM; in the assay on SF-268 CNS, 44300 nM.
Turning to `CCc1oc2ccccc2c1C(=O)c1cc(Br)c(O)c(Br)c1`, the concentration for total growth inhibition (TGI) is 43600 nM in the assay on PC-3 prostate; 50000 nM in the assay with NCI-H226 lung; 59700 nM in the assay on MOLT-4 leukemia; 33600 nM with UACC-62 melanoma; 83500 nM in the assay on SF-295 CNS; above 100000 nM in the assay on SK-MEL-28 melanoma. Moreover, the TGI in the assay with CCRF-CEM leukemia came to 55400 nM; in the assay on ACHN renal, 31300 nM; in the assay on MDA-MB-231 breast, 44700 nM; in the assay with SF-268 CNS, 84700 nM.
As to `COc1cc(-c2cc(-c3nc4ccccc4[nH]3)[nH]n2)cc(OC)c1OC`, the GI50 is 2100 nM in the assay on PC-3 prostate; 1140 nM with NCI-H226 lung; 2130 nM with MOLT-4 leukemia; 1640 nM with UACC-62 melanoma; 3130 nM in the assay on SF-295 CNS; 2720 nM with SK-MEL-28 melanoma. Further, the GI50 in the assay on CCRF-CEM leukemia is 2120 nM; in the assay on ACHN renal, 2770 nM; with MDA-MB-231 breast, 3220 nM; with SF-268 CNS it was 6430 nM. For the same compound, the concentration for total growth inhibition (TGI) with PC-3 prostate was 8540 nM; with NCI-H226 lung, 7260 nM; with MOLT-4 leukemia, 5170 nM; in the assay with UACC-62 melanoma, 4660 nM; with SF-295 CNS it was 14700 nM; in the assay with SK-MEL-28 melanoma it was 9710 nM. Besides, the total growth inhibition concentration (TGI) in the assay on CCRF-CEM leukemia was determined as 9960 nM; in the assay on ACHN renal it was 14200 nM; in the assay on MDA-MB-231 breast it was 15800 nM; with SF-268 CNS, 21900 nM.
With `COc1cccc(/C=C/C(=O)c2cc3c(N)c(C(=O)Nc4cccc(Cl)c4C)sc3nc2C)c1`, the GI50 is 1430 nM in the assay with PC-3 prostate; 983 nM with NCI-H226 lung; 1260 nM with MOLT-4 leukemia; 844 nM in the assay on UACC-62 melanoma; 1500 nM with SF-295 CNS; 1260 nM in the assay on SK-MEL-28 melanoma. Moreover, the GI50 was 234 nM with CCRF-CEM leukemia, 811 nM in the assay with ACHN renal, 1130 nM in the assay with MDA-MB-231 breast and 1570 nM in the assay with SF-268 CNS. The TGI in the assay on PC-3 prostate is 7340 nM; in the assay with NCI-H226 lung, 2530 nM; in the assay with MOLT-4 leukemia, above 50000 nM; with UACC-62 melanoma, 3500 nM; in the assay with SF-295 CNS it was 9560 nM; in the assay on SK-MEL-28 melanoma it was 4700 nM. The TGI in the assay with CCRF-CEM leukemia was above 50000 nM; with ACHN renal, 1950 nM; in the assay with MDA-MB-231 breast it was 2680 nM; in the assay with SF-268 CNS, 14400 nM.
As to `O=C(O)c1ccc(NS(=O)(=O)c2cccc3cccnc23)cc1`, the GI50 with PC-3 prostate, in the assay with NCI-H226 lung, with MOLT-4 leukemia, in the assay on UACC-62 melanoma, in the assay on SF-295 CNS and with SK-MEL-28 melanoma was above 100000 nM each time. Further, the GI50 with CCRF-CEM leukemia, in the assay on ACHN renal, in the assay with MDA-MB-231 breast and in the assay on SF-268 CNS was above 100000 nM each time. The concentration for total growth inhibition (TGI) in the assay with PC-3 prostate, with NCI-H226 lung, in the assay with MOLT-4 leukemia, in the assay on UACC-62 melanoma, in the assay on SF-295 CNS and in the assay on SK-MEL-28 melanoma was above 100000 nM in each case. For the same compound, the TGI in the assay with CCRF-CEM leukemia, in the assay with ACHN renal, in the assay with MDA-MB-231 breast and in the assay with SF-268 CNS was above 100000 nM throughout.
For the compound `Cc1cccc(C[C@H](NC(=O)Nc2ccc(Cl)cc2F)C(=O)N[C@@H]2C(=O)N3C[C@H](O)C[C@H]3C(=O)N3CCCC[C@H]3C(=O)N[C@@H](C)C(=O)N3C[C@H](C)C[C@H]3C(=O)O[C@H]2C)c1` ({NH(4-Cl-2-F-phenyl)-CO}-[Phe(3-Me)][aThr][Hyp][Pip]A[Pro(4R-Me)]; ester 2-C), the GI50 with PC-3 prostate is 365 nM; with NCI-H226 lung, 511 nM; in the assay with MOLT-4 leukemia, 876 nM; in the assay on UACC-62 melanoma it was 505 nM; in the assay on SF-295 CNS, 416 nM; in the assay on SK-MEL-28 melanoma it was 728 nM. In addition, the GI50 is 520 nM in the assay with CCRF-CEM leukemia, 2110 nM with ACHN renal, 429 nM with MDA-MB-231 breast and 499 nM in the assay on SF-268 CNS. Also, the TGI in the assay with PC-3 prostate turned out to be 1850 nM; in the assay with NCI-H226 lung, 2630 nM; with MOLT-4 leukemia it was 6280 nM; with UACC-62 melanoma it was 1960 nM; in the assay with SF-295 CNS it was 1800 nM; in the assay on SK-MEL-28 melanoma it was 2080 nM. For the same compound, the TGI in the assay on CCRF-CEM leukemia was found to be 12000 nM; with ACHN renal, 6160 nM; with MDA-MB-231 breast it was 1710 nM; in the assay on SF-268 CNS, 4020 nM.
